Experimental data as given in patent US10975056B2 (GlaxoSmithKline Intellectual Property Development Limited, priority 2016, dated 2021).
Like-named read-outs stand apart in the source and are kept apart here.

Experiments:
[1] = test system: erythroid progenitor cells (EPCs); test: Fetal hemoglobin (HbF) ELISA in day 7 erythroid progenitor cells; assay type: cell-based, human; conditions: Homo sapiens, Erythroid progenitor cell, HbF ELISA, day 7 EPCs, 5 days; read-out: EPC ELISA (pEC50 category) (converted);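 note: for fetal hemoglobin induction normalized to vehicle-treated cells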
Method in brief: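 CD34+-derived EPCs, 1,000 cells/well, rhEPO 3 U/mL; Compound A 22-pt series, […]; 5 d, 37° C, 5% CO2. Freeze-thaw lysis, anti-HbF capture + HRP anti-HbF, TMB, OD450. Normalized to DMSO wells.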

DNMT1 = DNMT1 (Homo sapiens, UniProt P26358); test: DNMT1 biochemical activity, breaklight assay and/or SPA assay
Sequence of DNMT1 (P26358 whole entry, looked up): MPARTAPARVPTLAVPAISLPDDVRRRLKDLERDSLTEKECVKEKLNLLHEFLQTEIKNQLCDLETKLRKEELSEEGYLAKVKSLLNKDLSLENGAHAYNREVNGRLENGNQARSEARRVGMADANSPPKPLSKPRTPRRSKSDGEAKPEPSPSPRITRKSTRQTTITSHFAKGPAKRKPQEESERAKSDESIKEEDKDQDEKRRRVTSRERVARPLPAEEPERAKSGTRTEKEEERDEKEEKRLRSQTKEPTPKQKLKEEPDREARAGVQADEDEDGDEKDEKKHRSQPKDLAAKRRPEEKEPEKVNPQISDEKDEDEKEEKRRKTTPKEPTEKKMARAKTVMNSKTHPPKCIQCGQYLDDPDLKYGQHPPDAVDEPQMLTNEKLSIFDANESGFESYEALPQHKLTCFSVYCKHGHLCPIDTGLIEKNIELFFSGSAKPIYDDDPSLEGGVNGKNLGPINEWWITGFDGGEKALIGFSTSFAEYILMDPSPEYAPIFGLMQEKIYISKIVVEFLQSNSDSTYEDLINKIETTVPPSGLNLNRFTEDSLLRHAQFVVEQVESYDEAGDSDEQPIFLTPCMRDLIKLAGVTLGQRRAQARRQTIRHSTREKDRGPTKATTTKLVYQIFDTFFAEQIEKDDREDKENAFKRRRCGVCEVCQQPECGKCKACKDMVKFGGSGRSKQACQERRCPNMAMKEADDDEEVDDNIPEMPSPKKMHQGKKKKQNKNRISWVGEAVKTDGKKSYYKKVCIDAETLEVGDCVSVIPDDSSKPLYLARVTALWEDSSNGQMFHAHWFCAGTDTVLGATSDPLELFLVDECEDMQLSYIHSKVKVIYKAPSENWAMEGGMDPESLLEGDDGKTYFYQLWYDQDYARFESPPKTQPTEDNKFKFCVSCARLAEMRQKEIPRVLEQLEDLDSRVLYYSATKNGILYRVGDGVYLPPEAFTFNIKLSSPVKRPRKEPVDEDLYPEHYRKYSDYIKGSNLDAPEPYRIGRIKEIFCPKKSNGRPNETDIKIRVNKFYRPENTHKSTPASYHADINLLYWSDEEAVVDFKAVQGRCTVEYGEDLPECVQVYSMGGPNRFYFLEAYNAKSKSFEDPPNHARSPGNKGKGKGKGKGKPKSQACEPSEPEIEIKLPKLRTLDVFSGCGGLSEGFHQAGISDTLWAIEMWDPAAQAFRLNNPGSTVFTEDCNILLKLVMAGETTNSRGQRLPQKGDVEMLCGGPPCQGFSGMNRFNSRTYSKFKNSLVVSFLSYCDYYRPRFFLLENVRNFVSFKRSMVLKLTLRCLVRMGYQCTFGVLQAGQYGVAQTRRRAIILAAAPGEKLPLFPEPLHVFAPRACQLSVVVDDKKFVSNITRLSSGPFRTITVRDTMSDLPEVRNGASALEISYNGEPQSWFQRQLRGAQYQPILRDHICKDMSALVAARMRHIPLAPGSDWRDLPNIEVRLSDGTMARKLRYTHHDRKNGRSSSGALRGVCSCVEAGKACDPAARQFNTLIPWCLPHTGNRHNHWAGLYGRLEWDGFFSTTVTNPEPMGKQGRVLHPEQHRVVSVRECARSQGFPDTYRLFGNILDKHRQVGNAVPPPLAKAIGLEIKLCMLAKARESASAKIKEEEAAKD

human full length DNMT1 = human full length DNMT1 (Homo sapiens (Human), UniProt P26358); test: DNMT1 breaklight assay; assay type: biochemical; conditions: repeated experimental runs, read-out: average IC50 against DNMT1
Sequence of human full length DNMT1 (P26358 whole entry): as the sequence (P26358 whole entry, looked up) above
Procedure: DNMT1 breaklight in vitro assays were conducted in a total volume of 50 μl in a standard 384 well format, using black non-binding surface microplates (Corning 3575). Five μl of human full length DNMT1 (produced internally), used at a final concentration of 40 nM, was added to 5 μl of substrate mixture containing final concentrations of 125 nM hemi methylated oligonucleotide (synthesized at ATD Bio; 5′-FAM-[…]5[…]5G5TAGAT-3′ where 5=methyl deoxycitidine) and 2 μM ultrapure SAM (Cisbio #62SAHZLD). Negative control wells used 5 μl of DNMT1 and 5 μl of oligonucleotide but 0 μM SAM. All reagents were made up in 1× assay buffer (20 mM Tris pH 6.8, 25 mM NaCl, 0.5 mM MgCl2, 0.01% Triton X100 and 1 mM DTT). The reaction was incubated at 26° C. for 45 min and then stopped with the addition of 40 μl detection reagent. Detection reagent, made up in 1× Gla assay buffer (20 mM Tris pH 8.0, 80 mM NaCl, 0.75 mM MgCl2, 0.01% Triton X100 and 1 mM DTT) has a final concentration of 100 μM SAH (Sigma #A9384) and 0.0008 units/μl Gla1 restriction endonuclease (Sibenzyme #E494). Following addition of the detection reagent the plate was incubated in the dark at room temperature for 5 hr. Fluorescence intensity was then measured on the PHERAstar FS (BMG Labtech) at Ex 485 nm and Em 520 nm, with a gain of 400 and an integration time of 100 ms.

DNMT3B = DNMT3B (Homo sapiens (Human), UniProt Q9UBC3); test: DNMT3B breaklight assay; assay type: biochemical
human DNMT3a/3l = human DNMT3a/3l (Homo sapiens (Human), UniProt Q9Y6K1); test: DNMT3a/3l breaklight assay; assay type: biochemical
Sequence of human DNMT3a/3l (Q9Y6K1 whole entry, looked up): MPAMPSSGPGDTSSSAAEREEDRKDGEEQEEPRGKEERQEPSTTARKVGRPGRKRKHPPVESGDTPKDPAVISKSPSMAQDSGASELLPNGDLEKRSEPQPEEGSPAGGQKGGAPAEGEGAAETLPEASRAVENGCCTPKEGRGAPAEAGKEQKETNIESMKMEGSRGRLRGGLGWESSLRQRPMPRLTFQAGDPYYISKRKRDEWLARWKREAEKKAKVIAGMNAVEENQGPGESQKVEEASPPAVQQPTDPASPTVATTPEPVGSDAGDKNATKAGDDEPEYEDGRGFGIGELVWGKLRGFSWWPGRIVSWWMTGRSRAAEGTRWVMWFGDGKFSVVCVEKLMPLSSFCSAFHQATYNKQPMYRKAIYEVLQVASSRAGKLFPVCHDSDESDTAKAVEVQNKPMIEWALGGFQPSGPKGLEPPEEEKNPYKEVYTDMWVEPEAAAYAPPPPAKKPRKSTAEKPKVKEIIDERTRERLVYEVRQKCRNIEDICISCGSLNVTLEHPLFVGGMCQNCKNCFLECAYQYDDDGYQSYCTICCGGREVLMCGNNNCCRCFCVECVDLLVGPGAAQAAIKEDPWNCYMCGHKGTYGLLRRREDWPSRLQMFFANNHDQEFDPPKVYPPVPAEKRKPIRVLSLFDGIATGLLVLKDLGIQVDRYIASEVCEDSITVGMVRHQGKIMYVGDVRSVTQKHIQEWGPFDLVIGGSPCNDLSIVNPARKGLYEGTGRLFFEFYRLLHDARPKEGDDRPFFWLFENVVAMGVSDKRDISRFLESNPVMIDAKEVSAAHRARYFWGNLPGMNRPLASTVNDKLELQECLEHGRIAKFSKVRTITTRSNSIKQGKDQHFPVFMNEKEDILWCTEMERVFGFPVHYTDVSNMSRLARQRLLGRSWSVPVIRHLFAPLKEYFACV
Sequence of human DNMT3a/3l (Q9UJW3 whole entry partner, looked up): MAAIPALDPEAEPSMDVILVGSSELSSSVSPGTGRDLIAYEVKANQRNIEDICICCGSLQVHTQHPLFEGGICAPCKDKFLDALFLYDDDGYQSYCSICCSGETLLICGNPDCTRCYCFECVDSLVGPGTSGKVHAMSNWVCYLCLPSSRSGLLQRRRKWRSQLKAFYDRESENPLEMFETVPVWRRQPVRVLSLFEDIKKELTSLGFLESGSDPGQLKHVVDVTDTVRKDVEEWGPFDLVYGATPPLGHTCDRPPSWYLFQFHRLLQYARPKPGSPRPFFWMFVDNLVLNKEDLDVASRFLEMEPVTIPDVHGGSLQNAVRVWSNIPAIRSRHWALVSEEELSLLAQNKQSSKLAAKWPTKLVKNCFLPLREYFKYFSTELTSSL
Procedure: DNMT3a/3l Breakliqht Assay
DNMT3a/3l breaklight in vitro assays were conducted in a total volume of 50 μl in a standard 384 well format, using black non-binding surface microplates (Corning #3575). […] Negative control wells used 5 μl of DNMT3a/3l and 5 μl of oligonucleotide but also included 200 μM SAH. All reagents were made up in 1× assay buffer (20 mM Tris pH 7.4, 100 mM NaCl, 1.5 mM EDTA, 0.1 mM MgCl2, 1 mM CHAPS and 1 mM DTT). The reaction was incubated at 37° C. for 90 min and then stopped with the addition of 40 μl detection reagent. Detection reagent, made up in 1× Gla assay buffer (20 mM Tris pH 8.0, 80 mM NaCl, 0.75 mM MgCl2, 0.01% Triton X100 and 1 mM DTT) has a final concentration of 200 μM SAH (Sigma #A9384) and 0.0008 units/μl Gla1 restriction endonuclease (Sibenzyme #E494). Following addition of the detection reagent the plate was incubated in the dark at room temperature for 5 hr. Fluorescence intensity was then measured on the PHERAstar FS (BMG Labtech) at Ex 485 nm and Em 520 nm, with a gain of 400 and an integration time of 100 ms.

[2] = binned activity in either the breaklight or the SPA assay, read-out: DNMT1 BioChemical (pIC50 category) (converted)
[3] = binned activity in either the breaklight or the SPA assay
[4] = read-out: DNMT3B Breaklight IC50
[5] = read-out: DNMT3A Breaklight IC50

Compound | EC50 [1] [nM] | IC50 (DNMT1; [2]) [nM] | IC50 (human full length DNMT1) [nM] | DNMT1 BioChemical (pIC50 category) (DNMT1; [3]) | IC50 (DNMT3B; [4]) [µM] | IC50 (human DNMT3a/3l; [5]) [µM] | IC50 (DNMT3B; repeated experimental runs, read-out: average IC50, DNMT3B breaklight assay) [µM] | IC50 (human DNMT3a/3l; repeated experimental runs, read-out: average IC50, DNMT3A breaklight assay) [µM] | IC50 (DNMT1; breaklight assay and/or SPA assay, repeated experimental runs, read-out: average pIC50 against DNMT1 (converted)) [nM]
CCc1c(C#N)c(SC(C(N)=O)c2ccccc2)nc(N2CCN(CCCN)CC2)c1C#N (stereo not drawn) [Example 37, 2-((6-(4-(3-aminopropyl)piperazin-1-yl)-3,5-dicyano-4-ethylpyridin-2-yl)thio)-2-phenylacetamide] | 1000 to 31600 | 316 to 1000 | ≤ 500 |  |  |  |  |  | 
CC1CN(c2nc(SC(C(N)=O)c3ccccc3)c(C#N)c(C3CC3)c2C#N)CC(C)O1 (stereo not drawn) [Example 21, 2-((3,5-Dicyano-4-cyclopropyl-6-(2,6-dimethylmorpholino)pyridin-2-yl)thio)-2-phenylacetamide] | 1000 to 31600 | 316 to 1000 | > 750 |  |  |  |  |  | 
CC1CN(c2nc(SC(C(N)=O)c3ccccc3)c(C#N)c(C3CC3)c2C#N)CC(C)N1 (stereo not drawn) [Example 20] | < 316 |  | ≤ 500 |  |  |  |  |  | 
CCN1CCCN(c2nc(SC(C(N)=O)c3ccccc3)c(C#N)c(C3CC3)c2C#N)CC1 (stereo not drawn) [Example 5, 2-{[3,5-dicyano-4-cyclopropyl-6-(4-ethyl-1,4-diazepan-1-yl)pyridin-2-yl]sulfanyl}-2-phenylacetamide] | < 316 |  | ≤ 500 | D (Category D: ≥6.5) |  |  |  |  | 
CCc1c(C#N)c(SC(C(N)=O)c2ccccc2)nc(N2CCC3(CC2)CNC3)c1C#N (stereo not drawn) [Example 43, 2-((3,5-Dicyano-4-ethyl-6-(2,7-diazaspiro[3.5]nonan-7-yl)pyridin-2-yl)thio)-2-phenylacetamide] | 316 to 1000 |  | ≤ 500 | D (Category D: ≥6.5) |  |  |  |  | 
N#Cc1c(N)nc(SC(C(N)=O)c2ccccc2)c(C#N)c1C1CC1 (stereo not drawn) [Example 51, 2-[(6-amino-3,5-dicyano-4-cyclopropyl-2-pyridyl)sulfanyl]-2-phenyl-acetamide] | > 31600 | 316 to 1000 |  |  | > 500 | > 500 |  |  | 
CCCN1CCCN(c2nc(SC(C(N)=O)c3ccccc3)c(C#N)c(CC)c2C#N)CC1 (stereo not drawn) [Example 6, 2-((3,5-dicyano-4-ethyl-6-(4-propyl-1,4-diazepan-1-yl)pyridin-2-yl)thio)-2-phenylacetamide] | < 316 |  |  | D (Category D: ≥6.5) | > 500 | > 500 | > 500 | > 500 | 
CCc1c(C#N)c(N)nc(SC(C(N)=O)c2ccccc2)c1C#N (stereo not drawn) [Example 1, 2-[(6-amino-3,5-dicyano-4-ethylpyridin-2-yl)sulfanyl]-2-phenylacetamide] | > 31600 | 1000 to 31600 |  |  | > 500 | 417 |  |  | 
CCc1c(C#N)c(SC(C(N)=O)c2ccccc2)nc(N2CCN(C(C)=O)CC2)c1C#N (stereo not drawn) [Example 126, 2-((6-(4-Acetylpiperazin-1-yl)-3,5-dicyano-4-ethylpyridin-2-yl)thio)-2-phenylacetamide] | < 316 | 316 to 1000 |  |  | > 500 | > 500 |  |  | 316 to 1000
CCc1c(C#N)c(SC(C(N)=O)c2ccccc2)nc(N2CCCN(CCOC)CC2)c1C#N (stereo not drawn) [Example 106, 2-({3,5-Dicyano-4-ethyl-6-[4-(2-methoxyethyl)-1,4-diazepan-1-yl]pyridin-2-yl}sulfanyl)-2-phenylacetamide] | < 316 |  |  | D (Category D: ≥6.5) | > 500 | > 500 |  |  | 
CCc1c(C#N)c(SC(C(N)=O)c2ccccc2)nc(N2CCC3(CCO3)C2)c1C#N (stereo not drawn) [Example 36, 2-((3,5-Dicyano-4-ethyl-6-(1-oxa-6-azaspiro[3.4]octan-6-yl)pyridin-2-yl)thio)-2-phenylacetamide] | 1000 to 31600 |  | > 750 | D (Category D: ≥6.5) |  |  |  |  | 
CCc1c(C#N)c(SC(C(N)=O)c2ccccc2)nc(N2CCCNCC2)c1C#N (stereo not drawn) [Example 112, 2-{[3,5-Dicyano-6-(1,4-diazepan-1-yl)-4-ethylpyridin-2-yl]sulfanyl}-2-phenylacetamide] | < 316 |  |  | D (Category D: ≥6.5) | > 500 | > 500 |  |  | 
CCc1c(C#N)c(SC(C(N)=O)c2ccccc2)nc(N2CCC3(CCCN(C)C3)CC2)c1C#N (stereo not drawn) [Example 118, 2-((3,5-Dicyano-4-ethyl-6-(2-methyl-2,9-diazaspiro[5.5]undecan-9-yl)pyridin-2-yl)thio)-2-phenylacetamide] | < 316 |  |  | D (Category D: ≥6.5) | 124 | > 500 |  |  | 
CCc1c(C#N)c(SC(C(N)=O)c2ccccc2)nc(N2C[C@@H](C)N[C@@H](C)C2)c1C#N (stereo partly drawn) [Example 61, 2-((3,5-Dicyano-6-((3S,5R)-3,5-dimethylpiperazin-1-yl)-4-ethylpyridin-2-yl)thio)-2-phenylacetamide] | < 316 |  | ≤ 500 | D (Category D: ≥6.5) |  |  |  |  | 
CCc1c(C#N)c(SC(C(N)=O)c2ccccc2)nc(N(C)CCN2CCOCC2)c1C#N (stereo not drawn) [Example 11, 2-[(3,5-dicyano-4-ethyl-6-{methyl[2-(morpholin-4-yl)ethyl]amino}pyridin-2-yl)sulfanyl]-2-phenylacetamide] | 316 to 1000 | 316 to 1000 | 580 |  |  |  |  |  | 
CCc1c(C#N)c(SC(C(N)=O)c2ccccc2)nc(N2CCC(=O)CC2)c1C#N (stereo not drawn) [Example 59, 2-((3,5-dicyano-4-ethyl-6-(4-oxopiperidin-1-yl)pyridin-2-yl)thio)-2-phenylacetamide] | 316 to 1000 | 316 to 1000 |  |  | > 500 | > 500 |  |  | 
CN(C)c1nc(SC(C(N)=O)c2ccccc2)c(C#N)c(C2CC2)c1C#N (stereo not drawn) [Example 127, 2-((3,5-Dicyano-4-cyclopropyl-6-(dimethylamino)pyridin-2-yl)thio)-2-phenylacetamide] | 316 to 1000 |  |  | D (Category D: ≥6.5) | > 500 | > 500 |  |  | 
N#Cc1c(SC(C(N)=O)c2ccccc2)nc(N2CCNC(=O)C2)c(C#N)c1C1CC1 (stereo not drawn) [Example 15, 2-{[3,5-dicyano-4-cyclopropyl-6-(3-oxopiperazin-1-yl)pyridin-2-yl]sulfanyl}-2-phenylacetamide] | 1000 to 31600 | 316 to 1000 | 440 |  |  |  |  |  | 
CCc1c(C#N)c(SC(C(N)=O)c2ccccc2)nc(N2CCC2)c1C#N (stereo not drawn) [Example 58, 2-[[6-(azetidin-1-yl)-3,5-dicyano-4-ethyl-2-pyridyl]sulfanyl]-2-phenyl-acetamide] | 1000 to 31600 |  | > 750 | D (Category D: ≥6.5) |  |  |  |  | 
N#Cc1c(SC(C(N)=O)c2ccccc2)nc(N2CCC(N)CC2)c(C#N)c1C1CC1 (stereo not drawn) [Example 28, 2-((6-(4-aminopiperidin-1-yl)-3,5-dicyano-4-cyclopropylpyridin-2-yl)thio)-2-phenylacetamide] | < 316 |  | ≤ 500 | D (Category D: ≥6.5) |  |  |  |  | 
CCc1c(C#N)c(SC(C(N)=O)c2ccccc2)nc(N2CC[C@H](O)C2)c1C#N (stereo partly drawn) [Example 49, 2-((3,5-Dicyano-4-ethyl-6-((S)-3-hydroxypyrrolidin-1-yl)pyridin-2-yl)thio)-2-phenylacetamide] | 316 to 1000 |  |  | D (Category D: ≥6.5) | > 500 | > 500 |  |  | 
